Reference: US20240425524A1, “SPIROTRICYCLE RIPK1 INHIBITORS AND METHODS OF USES THEREOF” (Merck Sharp & Dohme LLC, priority 2021, published 2024)

Target: RIPK1 (Homo sapiens (Human), UniProt Q13546)
Experiment: RIPK1-ADP-Glo Enzymatic Assay
Format: biochemical
Details: recombinant GST-RIPK1 kinase domain (residues 1-327), 25 nM, ten-point titration, 30 minutes pre-incubation
Outline: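 GST-RIPK1 kinase domain (residues 1-327, Sf21-expressed; 25 nM final) was pre-incubated 30 min at ambient temperature with compound (10-point 1:3 series from 100000 nM, 1% DMSO) in HEPES pH 7.3 buffer with 20 mM MgCl2. The reaction was started with 900 μM ATP (addition solution) and 3 μM dephosphorylated MBP and ran 150 min. Read-out was ADP-Glo luminescence, with EC50 from a four-parameter fit.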

RIPK1, sequence (Q13546 1-327): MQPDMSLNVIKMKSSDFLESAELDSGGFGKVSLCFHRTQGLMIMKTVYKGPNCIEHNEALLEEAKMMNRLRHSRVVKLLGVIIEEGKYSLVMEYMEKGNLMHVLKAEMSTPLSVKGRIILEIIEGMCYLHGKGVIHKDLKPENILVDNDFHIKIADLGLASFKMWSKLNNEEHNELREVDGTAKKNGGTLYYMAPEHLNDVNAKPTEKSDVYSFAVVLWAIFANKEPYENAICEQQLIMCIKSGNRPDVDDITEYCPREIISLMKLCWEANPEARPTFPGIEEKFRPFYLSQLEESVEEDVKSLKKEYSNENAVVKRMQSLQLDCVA

Row | Compound | EC50 [nM]
1 | N#Cc1ccc(N2CCC3(CC2)CN2CC[C@@H](c4cc(F)cc(F)c4)N2C3=O)nn1 [Example 1.37, (S)-6-(7′-(3,5-difluorophenyl)-1′-oxodihydro-1′H,3′H,5′H-spiro[piperidine-4,2′-pyrazolo[1,2-a]pyrazol]-1-yl)pyridazine-3-carbonitrile] | 473
2 | O=C1N2[C@H](c3cc(F)cc(F)c3)CCN2CC12CCN(c1cc(F)ncc1F)CC2 [Example 1.9, (7′S)-7′-(3,5-difluorophenyl)-1-(2,5-difluoropyridin-4-yl)dihydro-1′H,3′H,5′H-spiro[piperidine-4,2′-pyrazolo[1,2-a]pyrazol]-1′-one] | 37
3 | O=C1N2[C@H](c3cc(F)cc(F)c3)CCN2CC12CCN(c1cnnc(Cl)c1)CC2 [Example 1.96, (S)-1-(6-chloropyridazin-4-yl)-7′-(3,5-difluorophenyl)dihydro-1′H,3′H,5′H-spiro[piperidine-4,2′-pyrazolo[1,2-a]pyrazol]-1′-one] | 571
4 | O=C1N2[C@H](c3cc(F)cc(F)c3)CCN2CC12CCN(c1cc(C(F)F)ncn1)CC2 [Example 1.7, (7′S)-1-[6-(difluoromethyl)pyrimidin-4-yl]-7′-(3,5-difluorophenyl)dihydro-1′H,3′H,5′H-spiro [piperidine-4,2′-pyrazolo[1,2-a]pyrazol]-1′-one] | 39
5 | O=C1N2[C@H](c3cc(F)cc(F)c3)CCN2CC12CCN(c1ncc(Br)cn1)CC2 [Example 1.54, (S)-1-(5-bromopyrimidin-2-yl)-7′-(3,5-difluorophenyl)dihydro-1′H,3′H,5′H-spiro[piperidine-4,2′-pyrazolo[1,2-a]pyrazol]-1′-one] | 17
6 | O=C1N2[C@H](c3cc(F)cc(F)c3)CCN2CC12CCN(c1cncc(Cl)n1)CC2 [Example 1.40, (S)-1-(6-chloropyrazin-2-yl)-7′-(3,5-difluorophenyl)dihydro-1′H,3′H,5′H-spiro[piperidine-4,2′-pyrazolo[1,2-a]pyrazol]-1′-one] | 407
7 | Cc1cc2c(N3CCC4(CC3)CN3CC[C@@H](c5cc(F)cc(F)c5)N3C4=O)ncnc2s1 [Example 1.67, (S)-7′-(3,5-difluorophenyl)-1-(6-methylthieno[2,3-d]pyrimidin-4-yl)dihydro-1′H,3′H,5′H-spiro[piperidine-4,2′-pyrazolo[1,2-a]pyrazol]-1′-one] | 38
8 | O=C1N2[C@H](c3cc(F)cc(F)c3)CCN2CC12CCN(c1ncc(F)cn1)CC2 [Example 1.29, (S)-7′-(3,5-difluorophenyl)-1-(5-fluoropyrimidin-2-yl)dihydro-1′H,3′H,5′H-spiro[piperidine-4,2′-pyrazolo[1,2-a]pyrazol]-1′-one] | 84
9 | O=C1N2[C@H](c3cc(F)cc(F)c3)CCN2CC12CCN(c1cncc(-n3cccn3)n1)CC2 [Example 1.70, (S)-1-(6-(1H-pyrazol-1-yl)pyrazin-2-yl)-7′-(3,5-difluorophenyl)dihydro-1′H,3′H,5′H-spiro[piperidine-4,2′-pyrazolo[1,2-a]pyrazol]-1′-one] | 82
10 | N#Cc1cc(N2CCC3(CC2)CN2CC[C@@H](c4cc(F)cc(F)c4)N2C3=O)ncn1 [Example 1.74, (S)-6-(7′-(3,5-difluorophenyl)-1′-oxodihydro-1′H,3′H,5′H-spiro[piperidine-4,2′-pyrazolo[1,2-a]pyrazol]-1-yl)pyrimidine-4-carbonitrile] | 30
11 | CN(C)c1nc(Cl)cc(N2CCC3(CC2)CN2CC[C@@H](c4cc(F)cc(F)c4)N2C3=O)n1 [Example 1.30, (S)-1-(6-chloro-2-(dimethylamino)pyrimidin-4-yl)-7′-(3,5-difluorophenyl)dihydro-1′H,3′H,5′H-spiro[piperidine-4,2′-pyrazolo[1,2-a]pyrazol]-1′-one] | 110
12 | COc1nc(OC)nc(N2CCC3(CC2)CN2CC[C@@H](c4cc(F)cc(F)c4)N2C3=O)n1 [Example 1.31, (S)-7′-(3,5-difluorophenyl)-1-(4,6-dimethoxy-1,3,5-triazin-2-yl)dihydro-1′H,3′H,5′H-spiro [piperidine-4,2′-pyrazolo[1,2-a]pyrazol]-1′-one] | 285
13 | O=C1N2[C@H](c3cc(F)cc(F)c3)CCN2CC12CCN(c1cc(N3CCCC3)ncn1)CC2 [Example 1.69, (S)-7′-(3,5-difluorophenyl)-1-(6-(pyrrolidin-1-yl)pyrimidin-4-yl)dihydro-1′H,3′H,5′H-spiro[piperidine-4,2′-pyrazolo[1,2-a]pyrazol]-l′-one] | 296
14 | NC(=O)c1ccnc(N2CCC3(CC2)CN2CC[C@@H](c4cc(F)cc(F)c4)N2C3=O)n1 [Example 1.24, (S)-2-(7′-(3,5-difluorophenyl)-1′-oxodihydro-1′H,3′H,5′H-spiro[piperidine-4,2′-pyrazolo[1,2-a]pyrazol]-1-yl)pyrimidine-4-carboxamide] | 136
15 | CCc1nccc(N2CCC3(CC2)CN2CC[C@@H](c4cc(F)cc(F)c4)N2C3=O)n1 [Example 1.20, (S)-7′-(3,5-difluorophenyl)-1-(2-ethylpyrimidin-4-yl)dihydro-1′H,3′H,5′H-spiro[piperidine-4,2′-pyrazolo[1,2-a]pyrazol]-1′-one] | 159

Other lines, results leading:

Row | EC50 [nM] | Compound
16 | 32 | O=C(c1ccc(F)c(F)c1)N1CCC2(CC1)CN1CC[C@@H](c3cc(F)cc(F)c3)N1C2=O [Example 4.24, (S)-1-(3,4-difluorobenzoyl)-7′-(3,5-difluorophenyl) dihydro-1′H,3′H,5′H-spiro[piperidine-4,2′-pyrazolo[1,2-a]pyrazol]-l′-one]
17 | 414 | O=C(c1ccncc1)N1CCC2(CC1)CN1CC[C@@H](c3cc(F)cc(F)c3)N1C2=O [Example 4.5, (S)-7′-(3,5-difluorophenyl)-1-isonicotinoyldihydro-1′H,3′H,5′H-spiro[piperidine-4,2′-pyrazolo[1,2-a]pyrazol]-l′-one]
18 | 118 | Cc1ccn(-c2ccnc(N3CCC4(CC3)CN3CC[C@@H](c5cc(F)cc(F)c5)N3C4=O)c2)n1 [Example 2.5, (S)-7′-(3,5-difluorophenyl)-1-(4-(3-methyl-1H-pyrazol-1-yl)pyridin-2-yl)dihydro-1′H,3′H,5′H-spiro[piperidine-4,2′-pyrazolo[1,2-a]pyrazol]-1′-one]
19 | 26 | O=C(c1cc(F)cc(F)c1F)N1CCC2(CC1)CN1CC[C@@H](c3cc(F)cc(F)c3)N1C2=O [Example 4.12, (S)-7′-(3,5-difluorophenyl)-1-(2,3,5-trifluorobenzoyl) dihydro-1′H,3′H,5′H-spiro[piperidine-4,2′-pyrazolo[1,2-a]pyrazol]-l′-one]
20 | 907 | CCCOc1ccnc(N2CCC3(CC2)CN2CC[C@@H](c4cc(F)cc(F)c4)N2C3=O)c1 [Example 2.24, (S)-7′-(3,5-difluorophenyl)-1-(4-propoxypyridin-2-yl)dihydro-l′H,3′H,5′H-spiro[piperidine-4,2′-pyrazolo[1,2-a]pyrazol]-1′-one]
21 | 19 | O=C(c1cc(F)c(F)cc1F)N1CCC2(CC1)CN1CC[C@@H](c3cc(F)cc(F)c3)N1C2=O [Example 4.11, (S)-7′-(3,5-difluorophenyl)-1-(2,4,5-trifluorobenzoyl) dihydro-1′H,3′H,5′H-spiro[piperidine-4,2′-pyrazolo[1,2-a]pyrazol]-l′-one]
22 | 122 | O=C1N2[C@H](c3cc(F)cc(F)c3)CCN2CC12CCN(c1ccc(F)cc1)CC2 [Example 10.3, (S)-7′-(3,5-difluorophenyl)-1-(4-fluorophenyl)dihydro-1′H,3′H,5′H-spiro[piperidine-4,2′-pyrazolo[1,2-a]pyrazol]-l′-one]
23 | 50 | O=C1N2[C@H](c3cc(F)cc(F)c3)CCN2CC12CCN(c1cc(-n3ccnc3)ccn1)CC2 [Example 2.25, (S)-1-(4-(1H-imidazol-1-yl)pyridin-2-y1)-7′-(3,5-difluorophenyl)dihydro-1′H,3′H,5′H-spiro[piperidine-4,2′-pyrazolo[1,2-a]pyrazol]-1′-one]
24 | 23 | O=C(c1cccc(F)c1F)N1CCC2(CC1)CN1CC[C@@H](c3cc(F)cc(F)c3)N1C2=O [Example 4.29, (S)-1-(2,3-difluorobenzoyl)-7′-(3,5-difluorophenyl) dihydro-1′H,3′H,5′H-spiro[piperidine-4,2′-pyrazolo[1,2-a]pyrazol]-l′-one]
25 | 24 | Cc1ccc2c(N3CCC4(CC3)CN3CC[C@@H](c5cc(F)cc(F)c5)N3C4=O)ccnc2c1 [Example 2.8, (S)-7′-(3,5-difluorophenyl)-1-(7-methylquinolin-4-yl)dihydro-l′H,3′H,5′H-spiro[piperidine-4,2′-pyrazolo[1,2-a]pyrazol]-1′-one]
26 | 25 | O=C1N2[C@H](c3cc(F)cc(F)c3)CCN2CC12CCN(c1cnc(-c3ccccc3Cl)cn1)CC2 [Example 2.16, (S)-1-(5-(2-chlorophenyl)pyrazin-2-y1)-7′-(3,5-difluorophenyl)dihydro-1′H,3′H,5′H-spiro[piperidine-4,2′-pyrazolo[1,2-a]pyrazol]-1′-one]
27 | 18 | O=C(c1cc(F)cc(Cl)c1)N1CCC2(CC1)CN1CC[C@@H](c3cc(F)cc(F)c3)N1C2=O [Example 4.19, (S)-1-(3-chloro-5-fluorobenzoyl)-7′-(3,5-difluorophenyl) dihydro-1′H,3′H,5′H-spiro[piperidine-4,2′-pyrazolo[1,2-a]pyrazol]-l′-one]
28 | 338 | O=C1N2[C@H](c3cc(F)cc(F)c3)CCN2CC12CCN(c1cncc(F)c1)CC2 [Example 10.2, (S)-7′-(3,5-difluorophenyl)-1-(5-fluoropyridin-3-yl)dihydro-1′H,3′H,5′H-spiro[piperidine-4,2′-pyrazolo[1,2-a]pyrazol]-l′-one]
29 | 35 | O=C(c1cccc(F)c1)N1CCC2(CC1)CN1CC[C@@H](c3cc(F)cc(F)c3)N1C2=O [Example 4.25, (S)-7′-(3,5-difluorophenyl)-1-(3-fluorobenzoyl) dihydro-1′H,3′H,5′H-spiro[piperidine-4,2′-pyrazolo[1,2-a]pyrazol]-l′-one]
